Assay results published in US8097252B2, “Methods and compositions for administering therapeutic and diagnostic agents” (Immunomedics, Inc., priority 2003, dated 2012).
Starred links: 1 amine or outer side, 2 acyl side, 3 side chain; linkers in the order of their positions; H or OH if unused. Non-standard residues stand in square brackets, D forms with d. Residues, ends and D or L forms follow the SMILES beside them. Groups on a side chain read outwards from the residue. *: point of attachment. DTPA = O=C(O)CN(CCN(CC(=O)O)CC(=O)O)CCN(CC(=O)O)CC(=O)*; NH(2-(imidazol-4-yl)ethyl) = c1ncc(CCN*)[nH]1; Suc = O=C(CCC(=O)[*:2])[*:1]

Key:
[1] = Stability of 111In IMP 272 in fresh nude mouse serum; type: in vitro ADME; conditions: 37° C., 24 hr
Experimental: (§1) ^111InCl3 (30.4 μL) was added to 500 μL of DI H2O. This solution was added to the prepared vial of IMP 272 and allowed to sit for approximately 20 minutes at room temperature. An additional 600 μL of cold In Acetate Buffer (1.0×10^−4M InCl3, 0.5M NaOAc, pH 6.5) was then added to the same vial and allowed to sit for an additional 45 minutes. The total volume was 1130 μL with a molar quantity of […] of IMP 272 yielding a concentration of 8.777×10^−6M. After the labeling was completed, the peptide was tested for stability in fresh human and nude mouse serum over 24 hrs. The peptide was also tested for binding to humanized antibodies; m679×hMN14, and, m734×hMN14.
^111In IMP 272, 44 μL, was added to 400 μl fresh nude mouse serum. This was vortexed and placed under a constant temperature of 37° C. The peptide concentration for this mixture was 8.698×10^−7M.

[2] = Stability of 111In IMP 272 in fresh human serum; type: in vitro ADME; conditions: 37° C.
Experimental: as §1
^111In IMP 272, 60 μL, was added to 540 μL fresh human serum. This was vortexed and placed under a constant temperature of 37° C. The peptide concentration for this mixture was 8.777×10^−7M.

[3] = Biodistribution in nude mice bearing GW-39 xenografts (lock and chase); type: in vivo; conditions: mouse, tumor (GW-39 xenograft), iv, 76 ng, total radioactivity, 3 hrs post-IMP-272, assumption, read-out: amount in tumor
Experimental: To study the half-life of a pretargeted defined chemical substance (DCS), known as IMP-272 on a tumor, the following experiment is performed in nude mice bearing GW-39 human colorectal cancer xenografts. Animals receive three injections as follows: first injection of anti-CEA BS1.5HP diabody (hMN-14×679) followed 24 hours later with IMP-272, which is followed 3 hours later by the anti-In-DTPA F(ab′)2 antibody, 734. BS1.5HP is labeled with ^125I and the IMP-272 is labeled with ^111In. The synthesis and use of this diabody is disclosed in Clin. Cancer Res. 9:3886s-3896s (2003), and is herein incorporated in its entirety by reference. Known standard molecular biology methods were used to prepare the BS1.5HP
To test for maximum cross-linking of peptide on the surface of the tumor, the total protein dose of 734 F(ab′)2 injected ranges from 10 μg to 100 μg. Four groups of mice are administered 10 μCi ^125I-BS1.5HP (27 μg, 5.0×10^−10 moles) followed 24 hours later by 25 μCi ^111In-IMP-272 (5.0×10^−11 moles) for a bispecific:IMP-272 ratio of 10:1. IMP-272 is administered 3 hours before the administration of 734 F(ab′)2 to target the tumor and clear from the blood. […]
At the specified necropsy time, 5 animals are anesthetized, bled by cardiac puncture followed by cervical dislocation. […] Tissues is counted in a calibrated gamma counter for ^111In and ^125I. […]

B-cell lymphoma = assay: Therapy of B-cell lymphoma patient with internalization by cross-linking; type: in vivo
Experimental: A patient having B-cell lymphoma with extensive node involvement is infused intraveneously with a sterile, pyrogen-free solution containing a target dose of bispecific hA20Fab-679scFv prepared as described in U.S. application Ser. Nos. 09/337,756 and 60/360,229. After 24 hours, the patient then is infused intraveneously with a sterile, pyrogen-free PBS solution that contains a therapeutic dose of DTPA-Gln-Ala-Lys(HSG)-D-[I-131Tyr]-Lys(HSG)-NH2. After 24 hours the patient then is intraveneously infused with 50 mg of sterile, pyrogen-free PBS solution of bispecific hLL1IgG[734scFv]. […] This administration is illustrated schematically in FIG. 6-9.

Compound | stability in mouse serum [1] | stability in human serum (conclusion) [2] | peptide state after incubation in human serum ([2]; 1 hour) | binding to HSG after incubation in human serum ([2]; 24 hr) | binding to one of the two HSG's compromised ([2]; 24 hr, size exclusion HPLC) | tissue uptake at 3 h [3] [%ID/g] | size of the lymphoma-involved nodes (B-cell lymphoma; CAT scans over the next few months) | localization and retention of I-131 in lymphoma involved nodes (B-cell lymphoma; radioimmunodetection)
C[C@H](NC(=O)[C@H](CCC(N)=O)NC(=O)CN(CCN(CCN(CC(=O)O)CC(=O)O)CC(=O)O)CC(=O)O)C(=O)N[C@@H](CCCCNC(=O)CNC(=O)CCC(=O)NCCc1c[nH]cn1)C(=O)N[C@H](Cc1ccc(O)cc1)C(=O)N[C@@H](CCCCNC(=O)CNC(=O)CCC(=O)NCCc1c[nH]cn1)C(N)=O (111In complex, metal not drawn) [IMP 272, DTPA-Gln-Ala-Lys(HSG)-D-Tyr-Lys(HSG)-NH2] ({DTPA}-QAK([Gly-Suc-NH(2-(imidazol-4-yl)ethyl)])[dY]K([Gly-Suc-NH(2-(imidazol-4-yl)ethyl)])-NH2) | stable | partially metabolized | intact | lost some of the binding to HSG | about 50% | ~20 | – | –
DTPA-Gln-Ala-Lys(HSG)-D-[I-131Tyr]-Lys(HSG)-NH2 | – | – | – | – | – | – | significant reduction | intensive localization and long retention
